Data taken from patent US20250064941A1, “SIGLEC LIGANDS, CONJUGATES, AND METHODS OF USE THEREOF” (Osprey Biopharmaceuticals, Inc., priority 2023, published 2025).

Columns and labels:
[1] = biological target: T1, mouse Siglec-2-Fc-Avi (CD22) (Mus musculus, UniProt P35329); assay: SPR binding affinity to mouse CD22; settings: steady-state analysis
T1 construct: made in house
T1 sequence (P35329 22-708 limits assumed): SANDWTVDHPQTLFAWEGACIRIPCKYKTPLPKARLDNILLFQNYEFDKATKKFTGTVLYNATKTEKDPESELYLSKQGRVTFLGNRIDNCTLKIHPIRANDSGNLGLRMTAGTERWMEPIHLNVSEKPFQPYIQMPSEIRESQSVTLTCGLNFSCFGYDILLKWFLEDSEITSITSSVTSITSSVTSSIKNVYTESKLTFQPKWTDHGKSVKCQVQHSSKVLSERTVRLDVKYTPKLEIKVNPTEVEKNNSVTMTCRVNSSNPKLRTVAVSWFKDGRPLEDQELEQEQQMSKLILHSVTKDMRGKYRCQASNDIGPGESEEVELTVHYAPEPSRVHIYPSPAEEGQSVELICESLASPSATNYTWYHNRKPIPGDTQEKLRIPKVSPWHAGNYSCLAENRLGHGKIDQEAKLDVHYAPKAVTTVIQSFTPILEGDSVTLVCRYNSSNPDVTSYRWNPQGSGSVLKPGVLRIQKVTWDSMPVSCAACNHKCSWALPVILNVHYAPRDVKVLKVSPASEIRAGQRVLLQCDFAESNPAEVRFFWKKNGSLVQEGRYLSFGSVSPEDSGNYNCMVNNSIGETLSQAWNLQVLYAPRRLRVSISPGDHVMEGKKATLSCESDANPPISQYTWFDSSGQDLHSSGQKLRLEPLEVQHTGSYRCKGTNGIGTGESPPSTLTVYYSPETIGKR
Method: (§1) Prior to immobilization, CD22 proteins were treated with SialoExo (Genovis, Cat #G1-SM1-020) for 4 hours at 37° C. to remove native sialic acid residues.
(§2) Capture of biotinylated CD22 constructs was performed using a Cytiva SA chip (BR100398) on a Biacore 8K instrument.
(§3) Binding experiments of Siglec-ligand conjugated proteins or Siglec ligand compounds were performed on the surfaces prepared above in 10 mM HEPES, 150 mM NaCl, 0.05% Tween-20, pH 7.5, 1% DMSO as the running buffer. […] The compounds were then allowed to dissociate from the surface for 120 seconds. […] Solvent correction was performed using 0.5, 1, 1.5, and 2% DMSO spike into running buffer without DMSO. […] Data was analyzed using steady-state analysis in Biacore Insight Evaluation Software, version 3.0 for Siglec ligand compounds.

[2] = biological target: T2, human Siglec-2/CD22 protein (Homo sapiens, UniProt P20273); assay: SPR binding affinity to human CD22; settings: steady-state analysis
T2 construct: purchased Acro Biosystems SI2-H82E3
T2 sequence (P20273 20-847): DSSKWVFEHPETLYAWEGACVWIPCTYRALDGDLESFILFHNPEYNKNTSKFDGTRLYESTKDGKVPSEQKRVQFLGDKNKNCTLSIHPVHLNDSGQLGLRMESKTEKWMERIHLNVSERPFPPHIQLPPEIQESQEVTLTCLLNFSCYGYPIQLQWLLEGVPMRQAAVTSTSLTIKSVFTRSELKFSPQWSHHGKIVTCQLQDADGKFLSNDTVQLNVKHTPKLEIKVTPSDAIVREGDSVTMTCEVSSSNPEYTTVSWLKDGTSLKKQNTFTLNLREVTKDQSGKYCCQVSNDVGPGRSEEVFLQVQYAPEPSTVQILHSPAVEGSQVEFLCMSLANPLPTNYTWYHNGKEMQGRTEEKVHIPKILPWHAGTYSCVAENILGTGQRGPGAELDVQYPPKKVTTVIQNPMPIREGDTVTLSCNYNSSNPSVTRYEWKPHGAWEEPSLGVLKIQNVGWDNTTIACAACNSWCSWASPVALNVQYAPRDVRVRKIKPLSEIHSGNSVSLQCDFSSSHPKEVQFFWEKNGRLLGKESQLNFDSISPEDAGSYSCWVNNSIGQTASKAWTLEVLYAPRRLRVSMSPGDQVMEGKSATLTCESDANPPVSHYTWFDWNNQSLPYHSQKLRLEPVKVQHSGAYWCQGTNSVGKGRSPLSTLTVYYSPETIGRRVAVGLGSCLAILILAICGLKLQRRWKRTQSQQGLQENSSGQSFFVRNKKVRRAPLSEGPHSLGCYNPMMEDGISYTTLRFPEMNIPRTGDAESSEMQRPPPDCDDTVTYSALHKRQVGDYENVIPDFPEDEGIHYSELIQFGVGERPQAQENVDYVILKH
Method: as §1, §2, §3

For C#CCOCCCCCCO[C@]1(C(=O)O)C[C@H](O)[C@@H](NC(=O)c2ccccc2)[C@H]([C@H](O)[C@H](O)CNC(=O)Cc2ccc(Cl)cc2)O1 [Compound 92, (2R,4S,5R,6R)-5-benzamido-6-((1R,2R)-3-(2-(4-chlorophenyl)acetamido)-1,2-dihydroxypropyl)-4-hydroxy-2-((6-(prop-2-yn-1-yloxy)hexyl)oxy)tetrahydro-2H-pyran-2-carboxylic acid], the Kd [1] was > 10000 nM and the Kd [2] was < 1000 nM.

C#CCOCCOCCNc1c(NCCCCCCO[C@]2(C(=O)O)C[C@H](O)[C@@H](NC(=O)CO)[C@H]([C@H](O)[C@H](O)CNC(=O)c3cccc(Oc4ccccc4)c3)O2)c(=O)c1=O [Compound 39, (2R,4S,5R,6R)-6-((1R,2R)-1,2-dihydroxy-3-(3-phenoxybenzamido)propyl)-2-((6-((3,4-dioxo-2-((2-(2-(prop-2-yn-1-yloxy)ethoxy)ethyl)amino)cyclobut-1-en-1-yl)amino)hexyl)oxy) -4-hydroxy-5-(2-hydroxyacetamido) tetrahydro-2H-pyran-2-carboxylic acid] was tested, and the Kd [1] was 1000 to 10000 nM and the Kd [2] was < 1000 nM.

For CC(=O)NCCOCCOCCOCCOCc1cn(CCCCCCO[C@]2(C(=O)O)C[C@H](O)[C@@H](NC(C)=O)[C@H]([C@H](O)[C@H](O)CNC(=O)Cc3ccc(Cl)cc3)O2)nn1 [Compound 250, (2R,4S,5R,6R)-5-acetamido-6-((1R,2R)-3-(2-(4-chlorophenyl)acetamido)-1,2-dihydroxypropyl)-4-hydroxy-2-((6-(4-(15-oxo-2,5,8,11-tetraoxa-14-azahexadecyl)-1H-1,2,3-triazol-1-yl)hexyl)oxy) tetrahydro-2H-pyran-2-carboxylic acid], the Kd [1] was 1000 to 10000 nM and the Kd [2] was < 1000 nM.

In the case of C#CCOCCOCCNc1c(NCCCCCCO[C@]2(C(=O)O)C[C@H](O)[C@@H](NC(=O)CO)[C@H]([C@H](O)[C@H](O)CNC(=O)c3ccc(Cl)cc3)O2)c(=O)c1=O [Compound 254, (2R,4S,5R,6R)-6-((1R,2R)-3-(4-chlorobenzamido)-1,2-dihydroxypropyl)-2-((6-((3,4-dioxo-2-((2-(2-(prop-2-yn-1-yloxy)ethoxy)ethyl)amino)cyclobut-1-en-1-yl)amino)hexyl)oxy)-4-hydroxy-5-(2-hydroxyacetamido) tetrahydro-2H-pyran-2-carboxylic acid], the Kd [1] is reported as 1000 to 10000 nM and the Kd [2] is reported as < 1000 nM.

For CC(=O)NCCOCCOCCOCCOCCn1cc(COCCCCCCO[C@]2(C(=O)O)C[C@H](O)[C@@H](NC(=O)CO)[C@H]([C@H](O)[C@H](O)CNC(=O)Cc3ccc(C(F)F)cc3)O2)nn1 [Compound 261, (2R,4S,5R,6R)-6-((1R,2R)-3-(2-(4-(difluoromethyl)phenyl)acetamido)-1,2-dihydroxypropyl)-4-hydroxy-5-(2-hydroxyacetamido)-2-((6-((1-(2-oxo-6,9,12,15-tetraoxa-3-azaheptadecan-17-yl)-1H-1,2,3-triazol-4-yl)methoxy)hexyl)oxy)tetrahydro-2H-pyran-2-carboxylic acid], the Kd [1] was < 1000 nM and the Kd [2] was < 1000 nM.

With CC(=O)NCCOCCOCCOCCOCCNC(=O)NCCCCCCO[C@]1(C(=O)O)C[C@H](O)[C@@H](NC(C)=O)[C@H]([C@H](O)[C@H](O)CNC(=O)c2cccc(Cl)c2)O1 [Compound 269, (2R,4S,5R,6R)-5-acetamido-6-((1R,2R)-3-(3-chlorobenzamido)-1,2-dihydroxypropyl)-2-((2,19-dioxo-6,9,12,15-tetraoxa-3,18,20-triazahexacosan-26-yl)oxy)-4-hydroxytetrahydro-2H-pyran-2-carboxylic acid] the Kd [1] was > 10000 nM and the Kd [2] was 1000 to 10000 nM.

Compound C#CCOCCOCCNc1c(NCCCCCCO[C@]2(C(=O)O)C[C@H](O)[C@@H](NC(=O)CO)[C@H]([C@H](O)[C@H](O)CNC(=O)c3ccccc3Cl)O2)c(=O)c1=O [Compound 229, (2R,4S,5R,6R)-6-((1R,2R)-3-(2-chlorobenzamido)-1,2-dihydroxypropyl)-2-((6-((3,4-dioxo-2-((2-(2-(prop-2-yn-1-yloxy)ethoxy)ethyl)amino)cyclobut-1-en-1-yl)amino)hexyl)oxy)-4-hydroxy-5-(2-hydroxyacetamido)tetrahydro-2H-pyran-2-carboxylic acid] has a Kd [1] of 1000 to 10000 nM and a Kd [2] of 1000 to 10000 nM.

With C#CCOP(=O)(O)OCCCCO[C@]1(C(=O)O)C[C@H](O)[C@@H](NC(=O)CO)[C@H]([C@H](O)[C@H](O)CNC(=O)Cc2ccc(Cl)cc2)O1 [Compound 115, (2R,4S,5R,6R)-6-((1R,2R)-3-(2-(4-chlorophenyl)acetamido)-1,2-dihydroxypropyl)-4-hydroxy-2-(4-((hydroxy(prop-2-yn-1-yloxy)phosphoryl)oxy)butoxy)-5-(2-hydroxyacetamido)tetrahydro-2H-pyran-2-carboxylic acid] the Kd [1] was 1000 to 10000 nM and the Kd [2] was < 1000 nM.

C#CCOCCCCCCO[C@]1(C(=O)O)C[C@H](O)[C@@H](NC(=O)CO)[C@H]([C@H](O)[C@H](O)CNC(=O)Cc2ccc(-c3ccc(NC(C)=O)cc3)cc2)O1 [Compound 204, (2R,4S,5R,6R)-6-((1R,2R)-3-(2-(4′-acetamido-[1,1′-biphenyl]-4-yl)acetamido)-1,2-dihydroxypropyl)-4-hydroxy-5-(2-hydroxyacetamido)-2-((6-(prop-2-yn-1-yloxy)hexyl)oxy)tetrahydro-2H-pyran-2-carboxylic acid] was tested, and the Kd [1] was < 1000 nM and the Kd [2] was < 1000 nM.

C#CCOCCCCCCO[C@]1(C(=O)O)C[C@H](O)[C@@H](NC(=O)NCC)[C@H]([C@H](O)[C@H](O)CNC(=O)Cc2ccc(Cl)cc2)O1 [Compound 87, (2R,4S,5R,6R)-6-((1R,2R)-3-(2-(4-chlorophenyl)acetamido)-1,2-dihydroxypropyl)-5-(3-ethylureido)-4-hydroxy-2-((6-(prop-2-yn-1-yloxy)hexyl)oxy)tetrahydro-2H-pyran-2-carboxylic acid] was tested, and the Kd [1] was 1000 to 10000 nM and the Kd [2] was < 1000 nM.

In the case of CC(=O)NCCOCCOCCOCCOCCn1cc(COCCCCCCO[C@]2(C(=O)O)C[C@H](O)[C@@H](NC(=O)CO)[C@H]([C@H](O)[C@H](O)CNC(=O)Cc3ccc(Cl)cc3)O2)nn1 [Compound 262, (2R,4S,5R,6R)-6-((1R,2R)-3-(2-(4-chlorophenyl)acetamido)-1,2-dihydroxypropyl)-4-hydroxy-5-(2-hydroxyacetamido)-2-((6-((1-(2-oxo-6,9,12,15-tetraoxa-3-azaheptadecan-17-yl)-1H-1,2,3-triazol-4-yl)methoxy)hexyl)oxy)tetrahydro-2H-pyran-2-carboxylic acid], the Kd [1] is reported as 1000 to 10000 nM and the Kd [2] is reported as < 1000 nM.

In the case of C#CCCOc1ccc(CO[C@]2(C(=O)O)C[C@H](O)[C@@H](NC(=O)CO)[C@H]([C@H](O)[C@H](O)CNC(=O)Cc3ccc(N4CCOCC4)cc3)O2)cc1 [Compound 139, (2R,4S,5R,6R)-2-((4-(but-3-yn-1-yloxy)benzyl)oxy)-6-((1R,2R)-1,2-dihydroxy-3-(2-(4-morpholinophenyl)acetamido)propyl)-4-hydroxy-5-(2-hydroxyacetamido)tetrahydro-2H-pyran-2-carboxylic acid], the Kd [1] is reported as < 1000 nM and the Kd [2] is reported as 1000 to 10000 nM.
